According to patent publication US20040224898A1, “Compositions and methods for promoting lipid mobilization in humans” (priority 2002, published 2004):

Columns and labels:
Type in all cases: cell-based
[1] = system: human adipocytes; assay: Effect of propanolol on agent-induced glycerol release; conditions: agent 10 micromolar
Description: (§1) Human pre-adipocytes were isolated by liposuction and maintained in AGM for three weeks in order to permit the pre-adipocytes to differentiate to become mature adipocytes. AGM was removed, and adipocytes were incubated in Krebs-Ringers buffer comprising 0.1% fatty acid-free BSA at 37° C. for five hours in the presence of selected concentrations (10^−9 to 10^−5 molar) of one of Schistocera gregaria AKH II, cockroach hypertrehalosemic factor (obtained from Sigma Chemical Co, St. Louis, Mo., catalog number P0175), and Locusta migratoria AKH I (obtained from American Peptide Co., Sunnyvale, Calif., catalog number 60-9-18). Glycerol released from the adipocytes was assayed using a commercially available kit (GPO-trinder assay kit available form Sigma Chemical Company, St. Louis, Mo.).
Glycerol release assays were performed as described in Example 2, except that the assays were performed using single selected concentrations of one of cockroach hypertrehalosemic factor, Locusta migratoria AKH I, and isoproterenol and multiple selected concentrations of propanolol.

[2] = system: human adipocytes; assay: Glycerol release assay
Description: as §1
A similar experiment was performed, in which glycerol release from adipocytes was assessed in the presence of the Locusta migratoria AKH I or the cockroach hypertrehalosemic factor or in the presence of isoproterenol.

[3] = system: human adipocytes; assay: Release of tritium label from radiolabeled palmitate (lipid mobilizing activity); conditions: for % Tritium Label Release with Agent: 4 hours, 37° C., Table 6 experiment
Description: Lipid mobilizing activity was assessed by assaying release of tritium label from radiolabeled palmitate. This assay was performed by maintaining human pre-adipocytes in Adipocyte Growth Medium (AGM), which is Dulbecco's Modified Eagle's Medium (DMEM) mixed 1:1 by volume with Ham's F-10 medium. Ham's F-10 medium comprises 15 millimolar HEPES buffer adjusted to pH 7.4 and supplemented with biotin, pantothenate, human recombinant insulin, dexamethasone, fungicide, bactericide, and 3% (v/v) fetal bovine serum). Pre-adipocytes differentiated to become mature adipocytes by three weeks of maintenance in AGM. On the day prior to assay, the adipocytes were washed and incubated overnight in Krebs-Ringers buffer comprising 0.1% fatty acid-free bovine serum albumin (BSA) and comprising 1 microCurie per milliliter of tritiated (9,10-^3H) palmitate. The following day, the medium was removed, and the cells were washed three times […]. Isoproterenol (0 to 5×10^−8 molar), Schistocera gregaria AKH II (0 to 5×10^−5 molar), or Krebs-Ringer buffer (with 0.1% fatty acid-free BSA) containing neither of these was added to the cell suspension in a volume of 150 microliters. The suspensions were incubated for 4 hours at 37° C., and then 100 microliters of each sample was subjected to scintillation counting to detect released label in the supernatant. The total amount of label incorporated was determined for each well by solubilizing the cells using 1% sodium dodecyl sulfate and subjecting the entire contents of the well to scintillation counting. Fractional release of label was calculated by dividing the amount of label detected in cell supernatant by the total amount of label detected in the supernatant and in the cells remaining in the well, and percentage release was calculated by multiplying fractional release by 100.
A similar study was done using the same methods, except that cockroach hypertrehalosemic factor (0 to 5×10^−5 molar) was used in place of S. gregaria AKH II.
A similar tritium label release experiment performed using Heliothis zea AKH II and Locusta migratoria, except that a two-hour incubation period was used in place of a 4 hour incubation period.

Sequence: EVNFSPGWGT (listed as Gromphadorhina portentosa) [cockroach hypertrehalosemic factor, insect AKH family peptide, Sigma Chemical Co. catalog number P0175]
- Glycerol Release with Agent (medium concentration in millimolar) ([1]; propanolol 0 molar): 0.1515 ± 0.0155 millimolar
- Glycerol Release with Agent (medium concentration in millimolar) ([1]; propanolol 1 × 10^−5 molar): 0.2033 ± 0.0134 millimolar
- Glycerol Release with Agent (medium concentration in millimolar) ([1]; propanolol 1 × 10^−6 molar): 0.1370 ± 0.0170 millimolar
- Glycerol Release with Agent (medium concentration in millimolar) ([1]; propanolol 1 × 10^−7 molar): 0.1161 ± 0.0232 millimolar
- Glycerol Release with Agent (medium concentration in millimolar) ([2]; agent 1 × 10^−5, Table 9 experiment): 0.1515 ± 0.0155 millimolar
- Glycerol Release with Agent (medium concentration in millimolar) ([2]; agent 1 × 10^−5 molar, five hours, 37° C., Table 8 experiment): 1.124 millimolar
- Glycerol Release with Agent (medium concentration in millimolar) ([2]; agent 1 × 10^−6, Table 9 experiment): 0.1216 ± 0.0103 millimolar
- Glycerol Release with Agent (medium concentration in millimolar) ([2]; agent 1 × 10^−6 molar, five hours, 37° C., Table 8 experiment): 0.555 millimolar
- Glycerol Release with Agent (medium concentration in millimolar) ([2]; agent 1 × 10^−7, Table 9 experiment): 0.0944 ± 0.00166 millimolar
- Glycerol Release with Agent (medium concentration in millimolar) ([2]; agent 1 × 10^−7 molar, five hours, 37° C., Table 8 experiment): 0.527 millimolar
- Glycerol Release with Agent (medium concentration in millimolar) ([2]; agent 1 × 10^−8, Table 9 experiment): 0.0817 ± 0.0113 millimolar
- Glycerol Release with Agent (medium concentration in millimolar) ([2]; agent 1 × 10^−8 molar, five hours, 37° C., Table 8 experiment): 0.451 millimolar
- Glycerol Release with Agent (medium concentration in millimolar) ([2]; agent 1 × 10^−9 molar, five hours, 37° C., Table 8 experiment): 0.603 millimolar
- Ability to promote lipid mobilization in human adipocytes ([2]; conclusion of Example 2): able to promote lipid mobilization
- % Tritium Label Release with Agent ([3]; agent 1 × 10^−5 molar): 9.08%
- % Tritium Label Release with Agent ([3]; agent 1 × 10^−6 molar): 8.77%
- % Tritium Label Release with Agent ([3]; agent 1 × 10^−7 molar): 7.17%
- % Tritium Label Release with Agent ([3]; agent 1 × 10^−8 molar): 7.24%
- % Tritium Label Release with Agent ([3]; agent 1 × 10^−9 molar): 6.88%
- % Tritium Label Release with Agent ([3]; agent 1 × 10^−10 molar): 7.21%
- % Tritium Label Release with Agent ([3]; agent 5 × 10^−5 molar): 9.7%
- % Tritium Label Release with Agent ([3]; agent 5 × 10^−6 molar): 9.36%
- % Tritium Label Release with Agent ([3]; agent 5 × 10^−7 molar): 8.08%
- Ability to mobilize lipids in adipocytes ([3]; conclusion of Example 1, murine adipocytes): able to mobilize lipids
